Results as given in patent US4861897A, “2-Aryloxyalkylaminobenzoxazoles and 2-aryloxyalkylaminobenzothiazoles” (Ortho Pharmaceutical Corporation, priority 1987, dated 1989).
Like-named read-outs stand apart in the source and are kept apart here.

Columns and labels:
[1] = tested on: histamine stimulated parietal cell; experiment: Isolated parietal cell assay, inhibition of 14C-aminopyrine accumulation, histamine stimulated; format: cell-based, rabbit; details: Example 48, 37° C., read-out: IC50 vhist (inhibition of 14C-AP accumulation in histamine stimulated parietal cell)
Procedure: (§1) Isolated Parietal Cell Assay
(§2) The isolated parietal cell assay was conducted using the procedures of Batzri, S. et al., Biochemica et Biophysica Acta 508, 328 (1978) and Soll, A. H. Am. J. Physiol. 238, G366 (1980). Basically, parietal cells were isolated from the fundic mucosa of rabbit stomachs by a four-stage collagenase digestion process. The supernatant fractions from the last two stages of this process contain the individual parietal cells. This cell suspension was centrifuged and reconstituted in a modified Hank's buffer to contain 1-2×10^6 cells/ml. […] This accumulation was stimulated by histamine and was blocked by H2 antagonists. The cells were incubated with 0.4-0.5×10^6 cpm ^14 C-AP, with various concentrations of histamine as a stimulant, 1×10^-5 M isobutylmethylxanthine, and the test compound added in a 20 μl volume of buffer or DMSO. The flasks were incubated in a shaking water bath at 37° C. for 20 minutes. Two aliquots were then taken from each flask and cell pellets were collected by centrifugation. The pellets were solubilized with Protosol (New England Nuclear) and radioactivity determined by liquid scintillation spectrometry. Data is presented as the IC50 vhist, the concentration of compound required to inhibit ^14 C-AP accumulation in the histamine stimulated parietal cell by 50%. When dibutyryl cAMP was used to stimulate the cells instead of histamine, a similar inhibition of ^14 C-AP accumulation was measured and the data are presented as the IC50 vcAMP, the concentration required to inhibit ^14 C-AP accumulation in the cAMP stimulated parietal cells by 50%.

[2] = tested on: cAMP stimulated parietal cells; experiment: Isolated parietal cell assay, inhibition of 14C-aminopyrine accumulation, dibutyryl cAMP stimulated; format: cell-based, rabbit; details: Example 48, 37° C., read-out: IC50 vcAMP (inhibition of 14C-AP accumulation in cAMP stimulated parietal cells)
Procedure: as §1, §2

[3] = biological target: T1, parietal cell H^+ K^+ ATPase (Oryctolagus cuniculus, UniProt P27112); experiment: Inhibition of parietal cell H+ K+ ATPase; format: biochemical, New Zealand white rabbits; details: Example 49; for IC50: given as "50% @ x μM", read-out: % Inhibition at Concentration (H+ K+ ATPase): concentration given for 50% inhibition; for inhibition at 100 µM: @ 10^-4 M, read-out: % Inhibition at Concentration (H+ K+ ATPase)
T1 construct: determined in fundic mucosa from New Zealand white rabbits which were homogenized; from tissue; host or cells: fundic mucosa of New Zealand white rabbits, homogenized; membrane protein
Procedure: Inhibition of Parietal Cell H^+ K^+ ATPase
The activity was measured in a 1 ml incubation volume containing 50 mM Tris pH 7.4, 2 mM MgCl2, 2 mM Na2 ATP, with or without 20 mM KCl and vehicle control (dimethylsulfoxide) or test compound added in a 0.02 ml volume. Typically, 20-50 μg membrane protein was added and the tubes were preincubated with test compound for 10 minutes at 37° C. Substrate, Na2 ATP, was then added and the tubes were incubated for another 15 minutes at 37° C. The reaction was stopped by the addition of 1 ml 14% trichloroacetic acid and the samples were centrifuged at 2,000 xg for 10 minutes. The amount of inorganic phosphate present in an aliquot of supernatant was determined. H^+ K^+ ATPase activity was determined after correcting for the basal (Mg^++ only) enzyme activity present in the membrane preparation.

acid output = experiment: Gastric secretion, acid output in pylorus ligated rats; format: in vivo, male Charles River Sprague Dawley derived rats; details: Example 50, i.d. or s.c., four hours after pylorus ligation, compared to control; for response vs control in vivo at 40 mg/kg / response vs control in vivo at 20 mg/kg: Rattus norvegicus, 4 h, read-out: % Acid Secreted at mpK; for response vs control in vivo at 40 mg/kg: @ 40 mpK
Procedure: The inhibitory activity of the compounds on acid output was tested using pylorus ligation in a modification of the procedure of Shay, H. et al., Gastroenterology 26, 906 (1954). Basically, male Charles River Sprague Dawley derived rats weighing 150-300 grams were deprived of food but not water for 18-24 hours prior to use. Water was withheld during the experiment, however. The rats were weighed, anesthetized with ether and the pylorus ligated according to the method of Shay et al., supra. Treatment or vehicle control was then administered intraduodenally (i.d.) or subcutaneously (s.c.). Rats were housed two/cage and sacrificed with CO2 four hours after ligation. The stomachs were removed, rinsed, and contents emptied into a graduated centrifuge tube. The tubes were centrifuged, the volume of gastric juice recorded, and any samples obviously contaminated by feces, food or blood were eliminated. A 1 ml aliquot of gastric juice was titrated with 0.1N NaOH to a pH of 7.0-7.4. The volume of gastric juice secreted, the acid concentration, and the product of the volume times the concentration, i.e., the total amount of acid secreted, were measured.

T1 sequence (P27112 2-1035 limits assumed): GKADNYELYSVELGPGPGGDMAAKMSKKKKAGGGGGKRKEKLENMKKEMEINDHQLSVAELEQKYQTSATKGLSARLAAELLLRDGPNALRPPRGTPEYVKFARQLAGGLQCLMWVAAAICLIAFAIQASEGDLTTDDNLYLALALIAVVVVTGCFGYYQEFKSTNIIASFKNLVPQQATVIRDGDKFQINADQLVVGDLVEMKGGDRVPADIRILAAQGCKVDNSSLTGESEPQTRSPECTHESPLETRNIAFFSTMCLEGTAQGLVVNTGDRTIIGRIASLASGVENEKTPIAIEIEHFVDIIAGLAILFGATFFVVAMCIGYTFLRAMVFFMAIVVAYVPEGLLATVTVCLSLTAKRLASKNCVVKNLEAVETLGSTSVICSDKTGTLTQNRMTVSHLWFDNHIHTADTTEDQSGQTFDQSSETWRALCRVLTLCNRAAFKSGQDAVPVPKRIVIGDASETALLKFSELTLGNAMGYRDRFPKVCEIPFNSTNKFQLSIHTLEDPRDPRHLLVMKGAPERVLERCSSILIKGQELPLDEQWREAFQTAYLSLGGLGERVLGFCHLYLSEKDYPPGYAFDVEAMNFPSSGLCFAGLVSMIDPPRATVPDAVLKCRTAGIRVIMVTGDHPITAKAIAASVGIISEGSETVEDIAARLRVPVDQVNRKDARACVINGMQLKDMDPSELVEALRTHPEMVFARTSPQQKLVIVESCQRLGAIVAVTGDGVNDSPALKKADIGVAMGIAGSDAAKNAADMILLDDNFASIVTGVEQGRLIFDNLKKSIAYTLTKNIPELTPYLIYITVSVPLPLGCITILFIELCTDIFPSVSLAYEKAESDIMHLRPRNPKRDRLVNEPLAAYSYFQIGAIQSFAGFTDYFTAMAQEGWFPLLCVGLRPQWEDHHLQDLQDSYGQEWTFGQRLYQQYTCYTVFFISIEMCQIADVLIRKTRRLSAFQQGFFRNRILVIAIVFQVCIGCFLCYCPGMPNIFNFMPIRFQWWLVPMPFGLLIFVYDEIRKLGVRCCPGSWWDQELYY
T1 sequence (P18597 whole entry partner): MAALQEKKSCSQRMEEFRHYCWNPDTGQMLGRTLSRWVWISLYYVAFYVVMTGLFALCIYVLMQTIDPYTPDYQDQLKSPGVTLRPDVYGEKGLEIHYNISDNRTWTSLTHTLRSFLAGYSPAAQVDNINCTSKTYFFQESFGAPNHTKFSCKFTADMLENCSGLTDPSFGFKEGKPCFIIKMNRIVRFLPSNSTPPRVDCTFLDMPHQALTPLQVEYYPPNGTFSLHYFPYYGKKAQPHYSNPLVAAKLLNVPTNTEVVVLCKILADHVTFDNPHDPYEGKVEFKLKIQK

IC50 ([1]; Oryctolagus cuniculus, 20 min)	IC50 ([2]; Oryctolagus cuniculus, 20 min)	inhibition at 100 µM [3]	IC50 ([1]; 20 minutes)	IC50 ([2]; 20 minutes)	Compound	IC50 [3]	response vs control in vivo at 40 mg/kg (acid output)	response vs control in vivo at 20 mg/kg (acid output; @ 20 mpK)	% Acid Secreted at mpK (acid output; @ 10 mpK)	% Acid Secreted at mpK (acid output; @ 20 mpK)
200 nM	330 nM	61%	–	–	CCCCN(CCCC)CCCOc1cccc(/C=C/c2nc3ccccc3s2)c1 [Example 25]	–	–	40%	–	–
21000 nM	450 nM	46%	–	–	CCCCN(CCCC)CCCOc1ccc(/C=C/c2nc3ccccc3s2)cc1 [Example 28, (E)-2-[2-(4-Dibutylaminopropoxyphenyl)ethenyl]benzothiazole]	–	–	49%	25%	–
1700 nM	3400 nM	33%	–	–	COc1ccccc1N1CCN(CCCOc2ccc(/C=C/c3nc4ccccc4s3)cc2)CC1 [Example 31]	–	–	11%	–	–
290 nM	530 nM	52%	–	–	CCCCN(CCCC)CCCOc1ccc(/C=C/c2nc3cc(C)ccc3s2)cc1 [Example 34, (E)-2-[2-(4-Dibutylaminopropoxyphenyl)ethenyl]-5-methylbenzothiazole]	–	–	14%	–	–
260 nM	460 nM	–	–	–	CCCCN(CCCC)CCCOc1ccc(/C=C/c2nc3ccc(OC)cc3s2)cc1 [Example 35, (E)-2-[2-(4-Dibutylaminopropoxyphenyl)ethenyl]-6-methoxybenzothiazole]	60 µM	–	31%	–	–
400 nM	500 nM	52%	–	–	CCCCN(CCCC)CCCOc1ccc(/C=C/c2nc3cc(Cl)ccc3s2)cc1 [Example 36, (E)-2-[2-(4-Dibutylaminopropoxyphenyl)ethenyl]-5-chlorobenzothiazole]	–	26%	–	–	–
430 nM	600 nM	43%	–	–	CCCCN(CCCC)CCOc1ccc(/C=C/c2nc3ccccc3s2)cc1 [Example 37, (E)-2-[2-(4-Dibutylaminoethoxyphenyl)ethenyl]benzothiazole]	–	–	14%	–	–
390 nM	460 nM	19%	–	–	C(=C\c1nc2ccccc2s1)/c1ccc(OCCn2ccnc2)cc1 [Example 39]	–	32%	–	–	–
210 nM	140 nM	67%	–	–	CCCN(CCC)CCCOc1ccc(-c2nc3ccccc3s2)cc1 [Example 44, 2-(4-Dipropylaminopropoxyphenyl)benzothiazole]	–	–	42%	–	–
150 nM	360 nM	–	–	–	CCCN(CCC)CCCOc1c(OC)cc(/C=C/c2nc3ccccc3o2)cc1OC [Example 46, (E)-2-[2-(3,5-Dimethoxy-4-dipropylaminopropoxyphenyl)ethenyl]benzoxazole]	33 µM	–	46%	–	–
140 nM	100 nM	–	–	–	CCCN(CCC)CCCOc1c(C)cc(/C=C/c2nc3ccccc3o2)cc1C [Example 47]	15 µM	–	90%	–	–
–	–	–	410 nM	1400 nM	(E)-2-[2-[4-(3-Methylbenzylaminopropoxy)phenyl]ethenyl]benzoxazole [Example 13]	66 µM	–	–	–	34%

Compound	IC50 ([1]; Oryctolagus cuniculus, 20 min)	IC50 ([2]; Oryctolagus cuniculus, 20 min)	inhibition at 100 µM [3]	IC50 ([1]; 20 minutes)	IC50 ([2]; 20 minutes)	IC50 [3]	response vs control in vivo at 40 mg/kg (acid output)	response vs control in vivo at 20 mg/kg (acid output; @ 20 mpK)	% Acid Secreted at mpK (acid output; @ 10 mpK)	% Acid Secreted at mpK (acid output; @ 20 mpK)
C(=C\c1nc2ccccc2o1)/c1ccc(OCCCCN2CCCC2)cc1 [Example 23, (E)-2-[2-(4-Pyrrolinobutoxyphenyl)ethenyl]benzoxazole]	170 nM	240 nM	–	–	–	84 µM	24%	–	–	–
C(=C\c1nc2ccccc2o1)/c1ccc(OCCCCCn2ccnc2)cc1 [Example 24]	280 nM	230 nM	–	–	–	13 µM	–	45%	–	–
CCCN(CCC)CCCCOc1cccc(/C=C/c2nc3ccccc3s2)c1 [Example 26, (E)-2-[2-(3-Dipropylaminobutoxyphenyl)ethenyl]benzothiazole]	90 nM	180 nM	–	–	–	19 µM	80%	42%	–	–
C(=C\c1nc2ccccc2s1)/c1cccc(OCCCCn2ccnc2)c1 [Example 27]	110 nM	210 nM	–	–	–	4.7 µM	83%	42%	–	–
CCCN(CCC)CCCCOc1ccc(/C=C/c2nc3ccccc3s2)cc1 [Example 38]	30 nM	120 nM	–	–	–	21 µM	93%	–	–	–
CCN(CC)CCCCOc1ccc(/C=C/c2nc3ccccc3s2)cc1 [Example 41]	180 nM	350 nM	–	–	–	44 µM	–	52%	–	–
C(=C\c1nc2ccccc2s1)/c1ccc(OCCCCN2CCCC2)cc1 [Example 42, (E)-2-[2-(4-Pyrrolidinobutoxyphenyl)ethenyl]benzothiazole]	160 nM	260 nM	–	–	–	17 µM	20%	–	–	–
CCCN(CCC)CCCCOc1ccc(/C=C/c2nc3ccccc3o2)cc1Cl [Example 45, (E)-2-[2-(3-Chloro-4-dipropylaminobutoxyphenyl]ethenyl]benzoxazole]	800 nM	740 nM	–	–	–	17.5 µM	–	42%	–	–
